Data as given in ChEMBL document CHEMBL1201862, “PubChem BioAssay data set” (2004).
Counter-ions that a name gives are not always drawn.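 Tested at 5 concentrations; 48 h exposure; 96-well plates; endpoints linearly interpolated, else capped at highest concentration. The concentration for 50% growth inhibition is given as GI50.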 Activity calls are given as the source filed them. No stated cut-off is given here; in the data, active = GI50 up to about 1.1 µM and inactive = higher.

What was measured:
Experiment in all cases: DTP human tumour cell line panel, 48 h
[1] = test system: A498
[2] = test system: CCRF-CEM
[3] = test system: DU-145
[4] = test system: HCC 2998
[5] = test system: HCT-15
[6] = test system: IGROV-1
[7] = test system: MCF7
[8] = test system: MDA-N
[9] = test system: NCI-H23
[10] = test system: OVCAR-3
[11] = test system: SF-268
[12] = test system: SF-295
[13] = test system: SK-MEL-28
[14] = test system: SNB-19
[15] = test system: SNB-75
[16] = test system: SW-620
[17] = test system: T47D
[18] = test system: TK-10
[19] = test system: U-251
[20] = test system: UO-31

With `CC1(C)N=C(N)N=C(N)N1c1cccc(Cl)c1` the GI50 [1] was > 100 µM (inactive), the GI50 [2] was 3.76 µM (inactive) and the GI50 [3] was 17.4 µM (inactive). For the same compound, the GI50 [4] was 14 µM (inactive), the GI50 [5] was 10.5 µM and the GI50 [6] was 4.93 µM (inactive). The GI50 [7] was 4.6 µM (inactive), the GI50 [8] was 0.49 µM (active) and the GI50 [9] was 3.22 µM (inactive). The GI50 [10] was 22.4 µM (inactive), the GI50 [11] was 1.14 µM (inactive) and the GI50 [12] was 1.83 µM (inactive). The GI50 [13] was > 100 µM (inactive), the GI50 [14] was > 100 µM (inactive) and the GI50 [15] was 25.6 µM (inactive). The GI50 [16] was > 100 µM (inactive), the GI50 [17] was > 100 µM (inactive) and the GI50 [18] was 91.2 µM (inactive). The GI50 [19] was 1.36 µM (inactive) and the GI50 [20] was 15.5 µM (inactive).

For `O=[N+]([O-])c1oc2ccc3ccccc3c2c1CCO`, the GI50 [1] was 0.166 µM (active), the GI50 [2] was 3.86 µM (inactive) and the GI50 [3] was 3.51 µM (inactive). The GI50 [4] was 0.435 µM (active), the GI50 [5] was 3.56 µM and the GI50 [6] was 1.32 µM (inactive). The GI50 [7] was 3.22 µM (inactive), the GI50 [8] was 1.77 µM (inactive) and the GI50 [9] was 3.23 µM (inactive). The GI50 [10] was 12.6 µM (inactive), the GI50 [11] was 5.47 µM (inactive) and the GI50 [12] was 1.57 µM (inactive). The GI50 [13] was 1.38 µM (inactive), the GI50 [14] was 7.24 µM (inactive) and the GI50 [15] was 4.41 µM (inactive). For the same compound, the GI50 [16] was 4.08 µM (inactive), the GI50 [17] was 13.2 µM (inactive) and the GI50 [18] was 4.97 µM (inactive). The GI50 [19] was 9.44 µM (inactive) and the GI50 [20] was 1.64 µM (inactive).

`C=C1[C@H](OCC(C)C)[C@@H](O)[C@@H](OC(=O)c2cccnc2)C(C)(C)/C=C/[C@H](C)[C@H](OC(C)=O)[C@@]2(O)C[C@@](C)(OC(C)=O)[C@H](OC(=O)c3ccccc3)[C@@H]2[C@H]1OC(C)=O` was tested, and the GI50 [1] was 0.482 µM (active), the GI50 [2] was 0.133 µM (active) and the GI50 [3] was 1.91 µM (inactive). For the same compound, the GI50 [4] was 0.19 µM (active), the GI50 [5] was 1.16 µM and the GI50 [6] was 1.36 µM (inactive). For the same compound, the GI50 [7] was 1.8 µM (inactive), the GI50 [8] was 0.451 µM (active) and the GI50 [9] was 1.95 µM (inactive). The GI50 [10] was 1.12 µM (active), the GI50 [11] was > 1.49 µM (inactive) and the GI50 [12] was 0.371 µM (active). For the same compound, the GI50 [13] was 1.14 µM (inactive), the GI50 [14] was 3.1 µM (inactive) and the GI50 [15] was 0.134 µM (active). The GI50 [16] was 0.502 µM (active), the GI50 [17] was > 2.96 µM (inactive) and the GI50 [18] was 1.07 µM (active). For the same compound, the GI50 [19] was 1.34 µM (inactive) and the GI50 [20] was 0.54 µM (active).

With `COc1ccc(Cc2nccc3cc(OC)c(OC)cc23)cc1OC` [PAPAVERINE HYDROCHLORIDE] the GI50 [1] was 77.3 µM (inactive), the GI50 [2] was > 100 µM (inactive) and the GI50 [3] was > 100 µM (inactive). For the same compound, the GI50 [4] was 92.9 µM (inactive), the GI50 [5] was 87.3 µM and the GI50 [6] was > 100 µM (inactive). For the same compound, the GI50 [7] was > 100 µM (inactive), the GI50 [8] was 94 µM (inactive) and the GI50 [9] was 19.8 µM (inactive). For the same compound, the GI50 [10] was > 100 µM (inactive), the GI50 [11] was > 100 µM (inactive) and the GI50 [12] was 84.9 µM (inactive). For the same compound, the GI50 [13] was > 100 µM (inactive), the GI50 [14] was 70.1 µM (inactive) and the GI50 [15] was > 100 µM (inactive). The GI50 [16] was > 100 µM (inactive), the GI50 [17] was 19.5 µM (inactive) and the GI50 [18] was > 100 µM (inactive). The GI50 [19] was > 100 µM (inactive) and the GI50 [20] was 78.7 µM (inactive).

`CCOC(=O)NC(=O)c1cn(CCCOC(=O)CCCCCCCCC(=O)OCCCn2cc(C(=O)NC(=O)OCC)c(=O)n(C)c2=O)c(=O)n(C)c1=O` was tested, and the GI50 [1] was > 100 µM (inactive), the GI50 [2] was > 46.5 µM (inactive) and the GI50 [3] was > 100 µM (inactive). For the same compound, the GI50 [4] was > 100 µM (inactive), the GI50 [5] was over 100 µM and the GI50 [6] was > 100 µM (inactive). For the same compound, the GI50 [7] was > 100 µM (inactive), the GI50 [8] was > 100 µM (inactive) and the GI50 [9] was > 100 µM (inactive). For the same compound, the GI50 [10] was > 100 µM (inactive), the GI50 [11] was > 100 µM (inactive) and the GI50 [12] was > 100 µM (inactive). For the same compound, the GI50 [13] was > 100 µM (inactive), the GI50 [14] was 67 µM (inactive) and the GI50 [15] was > 48.2 µM (inactive). The GI50 [16] was > 92 µM (inactive), the GI50 [17] was > 100 µM (inactive) and the GI50 [18] was > 86.5 µM (inactive). The GI50 [19] was > 100 µM (inactive) and the GI50 [20] was > 100 µM (inactive).
